Assay results: US6458398B1, “Cold water disinfection of foods” (Eco Pure Food Safety Systems, Inc., priority 1999, dated 2002)

Legend:
Poliovirus type I = details: cited from earlier work
Candida tropicalis = details: in 0.30 minutes, ozone-demand free water; cited from earlier work
[1] = system: Escherichia coli (ATCC number 25922); assay: cold water washing of raw cabbage inoculated with E. coli suspension; details: 25 g raw cabbage, 10 minutes, 21° C., pH 7.5 (ozone only) or 8.5 (with FIT 0.6 g/L)
[2] = relative to chlorine; cited from earlier work
[3] = system: bacterial spores (Bacillus subtilis v. globigii); details: within 1.5-2 minutes, water purged with 3% ozone by weight; cited from earlier work
[4] = system: human immunodeficiency virus ("HIV"); details: non-toxic concentration of 4 μg ozone per ml of serum; cited from earlier work
Escherichia coli = details: in 19 minutes, raw waste water; cited from earlier work
Naegleria gruberi = details: in 1.1 minutes, ozone-demand free phosphate buffer solution; cited from earlier work

For `O=[O+][O-]` [ozone], the “ozone concentration giving a 99% reduction” value (Poliovirus type I) is listed as 0.2 mg/L, the “ozone concentration giving a 99% reduction” value (Candida tropicalis) is listed as 0.02 mg/L and the “decrease in E. coli relative to the control” value [1] is listed as 93%. For the same compound, the “rate of disinfection, times faster than chlorine” value [2] was “more than 3,000 times”, the “log reduction of bacterial spores” value [3] was “four” and the “log reduction in the infectious titer” value [4] was “six”. For the same compound, the “ozone concentration giving a 99% reduction” value (Escherichia coli) was 2.2 mg/L and the “ozone concentration giving a 99% reduction” value (Naegleria gruberi) was 1.2 mg/L.
